Here are results for two compounds from patent publication US20090023744A1, “COMBINATION THERAPY FOR DEPRESSION” (The General Hospital Corporation, priority 2007, published 2009).

Each structure is given as a SMILES string. “Also recorded” adds a separate entry of the source.

For data set [1], the target named is T1, 5-HT2C receptor (Homo sapiens, UniProt P28335).
T1 sequence (P28335 33-458): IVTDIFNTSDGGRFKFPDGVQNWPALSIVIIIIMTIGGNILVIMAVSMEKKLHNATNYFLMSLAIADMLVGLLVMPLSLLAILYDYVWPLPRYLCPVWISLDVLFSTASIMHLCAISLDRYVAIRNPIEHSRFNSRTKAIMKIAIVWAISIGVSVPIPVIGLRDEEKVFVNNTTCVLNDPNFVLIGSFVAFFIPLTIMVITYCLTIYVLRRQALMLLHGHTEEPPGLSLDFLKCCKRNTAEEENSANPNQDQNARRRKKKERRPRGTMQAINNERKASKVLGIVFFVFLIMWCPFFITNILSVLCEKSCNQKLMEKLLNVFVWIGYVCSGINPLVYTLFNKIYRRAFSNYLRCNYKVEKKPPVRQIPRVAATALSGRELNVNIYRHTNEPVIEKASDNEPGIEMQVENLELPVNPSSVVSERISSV
To be noted: reference [2]; cited from earlier work.

In data set [2] the target is T1, 5-HT2C receptor. To be noted: reference [2]; cited from earlier work. The source holds these as a separate data set.
Data set [3] relates to major depressive disorder (MDD). The data set is described as follows: Clinical case report: treatment of recurrent MDD with buspirone and bupropion. To be noted: same patient remaining on bupropion 150 SR q.d. alone. The format is in vivo, human. An excerpt:
A person with a history of recurrent episodes of MDD presented with a recurrence of their MDD in the context of their having been off antidepressant medications. […] At the time of the initiation of this treatment combination, the patient reported depressed mood, irritability, decreased sleep and appetite, and fatigue, as well as reduced interest.

As to `O=C1CC2(CCCC2)CC(=O)N1CCCCN1CCN(c2ncccn2)CC1` [buspirone, 8-[4-[4-(2-pyrimidinyl)-1-piperazinyl)butyl)-8-azaspiro[4,5]decane-7,9-dione], the “affinity for 5-HT2C receptors” value at 5-HT2C receptor [1] was “low affinity”. Moreover, the “5-HT2C receptor antagonist activity” value on 5-HT2C receptor [2] is “weak”.
As for `CC(NC(C)(C)C)C(=O)c1cccc(Cl)c1` (racemic) [bupropion, (±)-1-(3-chlorophenyl)-2-[(1,1-dimethylethyl)amino]-1-propanone], in data set [3], the “depressive symptoms after discontinuation of buspirone” value was “depressive symptoms quickly returned; also recorded: not sufficient to lead to antidepressant response” and the “insomnia after discontinuation of buspirone” value was “improvement of their insomnia”.
